Converted amounts (≈) assume the structure as drawn. Where two headings read alike, the source gives them in different places.
Tests used:
[1] = test system: Staphylococcus aureus X400; assay: MIC, standard agar-dilution assay, S. aureus X400; assay type: cell-based
Procedure: (§1) The MIC's in Table II were determined by standard agar-dilution assays. The MIC's in Table III were obtained using conventional broth-dilution microtiter tests.

[2] = test system: Mycoplasma gallisepticum 36H; assay: MIC, broth-dilution microtiter test, M. gallisepticum 36H; assay type: cell-based; conditions: Mycoplasmoides gallisepticum, broth-dilution microtiter, read-out: MIC
Procedure: as §1

[3] = test system: Pasteurella multocida 40G; assay: MIC, broth-dilution microtiter test, P. multocida 40G; assay type: cell-based; conditions: broth-dilution microtiter, read-out: MIC
Procedure: as §1

[4] = test system: Staphylococcus epidermidis 222; assay: MIC, standard agar-dilution assay, S. epidermidis 222; assay type: cell-based
Procedure: as §1

[5] = test system: Pseudomonas aeruginosa X239; assay: MIC, standard agar-dilution assay, P. aeruginosa X239; assay type: cell-based; conditions: agar-dilution, read-out: MIC
Procedure: as §1

[6] = test system: Haemophilus influenzae C.L.; assay: MIC, standard agar-dilution assay, H. influenzae C.L.; assay type: cell-based
Procedure: as §1

[7] = test system: Mycoplasma hyopneumoniae S5972; assay: MIC, broth-dilution microtiter test, M. hyopneumoniae S5972; assay type: cell-based; conditions: Mesomycoplasma hyopneumoniae, S5972; broth-dilution microtiter; read-out: MIC
Procedure: as §1

[8] = test system: Staphylococcus aureus S13E; assay: MIC, standard agar-dilution assay, S. aureus S13E; assay type: cell-based
Procedure: as §1

[9] = test system: Pasteurella multocida 17E; assay: MIC, broth-dilution microtiter test, P. multocida 17E; assay type: cell-based; conditions: Pasteurella multocida, 17E; broth-dilution microtiter; bovine isolate; read-out: MIC
Procedure: as §1

[10] = test system: Pasteurella multocida 22A; assay: MIC, broth-dilution microtiter test, P. multocida 22A; assay type: cell-based; conditions: broth-dilution microtiter, read-out: MIC
Procedure: as §1

Streptococcus sp. 19F = assay: MIC, broth-dilution microtiter test, Streptococcus sp. 19F; assay type: cell-based; conditions: Streptococcus, SP.19F; broth-dilution microtiter; read-out: MIC
Procedure: as §1

[11] = test system: Streptococcus pyogenes C203; assay: Protection of mice experimentally infected with Streptococcus pyogenes C203; assay type: in vivo; conditions: Streptococcus pyogenes, doses given 1 and 4 hours postinfection, read-out: ED50
Procedure: The formula 1 compounds have shown in vivo antimicrobial activity against experimentally-induced infections in laboratory animals. When two doses of test compound were administered to mice experimentally infected with Streptococcus pyogenes C203, the activity observed was measured as an ED50 value [effective dose in mg/kg to protect 50% of the test animals: see Warren Wick, et al., J. Bacteriol. 81, 233-235 (1961)].
^a mg/kg × 2; doses given 1 and 4 hours postinfection

[12] = test system: Staphylococcus aureus V41; assay: MIC, standard agar-dilution assay, S. aureus V41; assay type: cell-based; conditions: Staphylococcus aureus, V41
Procedure: as §1

[13] = test system: Haemophilus influenzae 76; assay: MIC, standard agar-dilution assay, H. influenzae 76; assay type: cell-based
Procedure: as §1

[14] = test system: Bordetella bronchiseptica; assay: MIC, broth-dilution microtiter test, B. bronchiseptica; assay type: cell-based; conditions: broth-dilution microtiter, read-out: MIC
Procedure: as §1

[15] = test system: Pasteurella hemolytica 22C; assay: MIC, broth-dilution microtiter test, P. hemolytica 22C; assay type: cell-based; conditions: broth-dilution microtiter, read-out: MIC
Procedure: as §1

[16] = test system: Pasteurella multocida 60A; assay: MIC, broth-dilution microtiter test, P. multocida 60A; assay type: cell-based; conditions: broth-dilution microtiter, avian isolate, read-out: MIC
Procedure: as §1

[17] = test system: Streptococcus pyogenes C203; assay: MIC, standard agar-dilution assay, S. pyogenes C203; assay type: cell-based; conditions: Streptococcus pyogenes, C203
Procedure: as §1

[18] = test system: Streptococcus Group D X66; assay: MIC, standard agar-dilution assay, Streptococcus Group D X66; assay type: cell-based
Procedure: as §1

[19] = test system: Pasteurella hemolytica 23C; assay: MIC, broth-dilution microtiter test, P. hemolytica 23C; assay type: cell-based; conditions: broth-dilution microtiter, read-out: MIC
Procedure: as §1

[20] = test system: Mycoplasma gallisepticum 29C; assay: MIC, broth-dilution microtiter test, M. gallisepticum 29C; assay type: cell-based; conditions: Mycoplasmoides gallisepticum, broth-dilution microtiter, read-out: MIC
Procedure: as §1

Staphylococcus aureus = assay: MIC, broth-dilution microtiter test, S. aureus; assay type: cell-based
Procedure: as §1

[21] = test system: Pasteurella hemolytica 41D; assay: MIC, broth-dilution microtiter test, P. hemolytica 41D; assay type: cell-based; conditions: broth-dilution microtiter, read-out: MIC
Procedure: as §1

Escherichia coli EC14 = assay: MIC, standard agar-dilution assay, E. coli EC14; assay type: cell-based; conditions: agar-dilution, read-out: MIC
Procedure: as §1

[22] = test system: Staphylococcus aureus X1.1; assay: MIC, standard agar-dilution assay, S. aureus X1.1; assay type: cell-based
Procedure: as §1

[23] = test system: Streptococcus pneumoniae Park I; assay: MIC, standard agar-dilution assay, S. pneumoniae Park I; assay type: cell-based; conditions: Streptococcus pneumoniae
Procedure: as §1

[24] = test system: Pasteurella multocida 68C; assay: MIC, broth-dilution microtiter test, P. multocida 68C; assay type: cell-based; conditions: broth-dilution microtiter, read-out: MIC
Procedure: as §1

[25] = test system: Streptococcus Group D 2041; assay: MIC, standard agar-dilution assay, Streptococcus Group D 2041; assay type: cell-based; conditions: GROUPD2041
Procedure: as §1

[26] = test system: Mycoplasma gallisepticum 15E; assay: MIC, broth-dilution microtiter test, M. gallisepticum 15E; assay type: cell-based; conditions: Mycoplasmoides gallisepticum, broth-dilution microtiter, read-out: MIC
Procedure: as §1

[27] = test system: Staphylococcus epidermidis EPI1; assay: MIC, standard agar-dilution assay, S. epidermidis EPI1; assay type: cell-based
Procedure: as §1

[28] = test system: Klebsiella pneumoniae X68; assay: MIC, standard agar-dilution assay, K. pneumoniae X68; assay type: cell-based; conditions: agar-dilution, read-out: MIC
Procedure: as §1

[29] = agar-dilution, ampicillin-sensitive strain, read-out: MIC
[30] = agar-dilution, ampicillin-resistant strain, read-out: MIC

SMILES | MIC [1] [µg/mL] | MIC [4] [µg/mL] | MIC [5] [µg/mL] | MIC [6] [µg/mL] | MIC [8] [µg/mL] | ED50 ([11]; C203, oral) [mg/kg] | ED50 ([11]; C203, sc, subcutaneous) [mg/kg] | MIC [12] [µg/mL] | MIC [13] [µg/mL] | MIC [17] [µg/mL] | MIC [18] [µg/mL] | MIC (Escherichia coli EC14) [µg/mL] | MIC [22] [µg/mL] | MIC [27] [µg/mL] | MIC [28] [µg/mL] | MIC [6, 29] [µg/mL] | MIC [13, 30] [µg/mL] | MIC [23] [µg/mL] | MIC [25] [µg/mL] | further results
CCC1OC(=O)CC(O)C(C)C(OC2OC(C)C(O)C(N(C)C)C2O)C(CCOc2ccccc2)CC(C)C(=O)C=CC(C)=CC1COC1OC(C)C(N)C(OC)C1OC (stereo not shown) [Compound 21, 4"-Amino-4"-deoxy-20-DH-20-O-phenyl-desmycosin] | 0.25 (≈ 0.294 µM) | 0.25 (≈ 0.294 µM) | > 128 | 32 (≈ 37.7 µM) | 0.25 (≈ 0.294 µM) | 57.4 | > 10 | 0.5 (≈ 0.589 µM) | 16 (≈ 18.8 µM) | 0.5 (≈ 0.589 µM) | 4 (≈ 4.71 µM) | > 128 | 0.25 (≈ 0.294 µM) | 0.5 (≈ 0.589 µM) | > 128 | – | – | – | – | MIC [2]: > 50 µg/mL; MIC [3]: 6.25 µg/mL (≈ 7.36 µM); MIC [7]: 50 µg/mL (≈ 58.9 µM); MIC [9]: 25 µg/mL (≈ 29.4 µM); MIC [10]: 12.5 µg/mL (≈ 14.7 µM); MIC (Streptococcus sp. 19F): 3.12 µg/mL (≈ 3.67 µM); MIC [14]: > 50 µg/mL; MIC [15]: 25 µg/mL (≈ 29.4 µM); MIC [16]: 12.5 µg/mL (≈ 14.7 µM); MIC [19]: 25 µg/mL (≈ 29.4 µM); MIC [20]: 1.56 µg/mL (≈ 1.84 µM); MIC (Staphylococcus aureus): 0.39 µg/mL (≈ 0.459 µM); MIC [21]: 12.5 µg/mL (≈ 14.7 µM); MIC ([23]; agar-dilution, read-out: MIC): 1 µg/mL (≈ 1.18 µM); MIC [24]: 12.5 µg/mL (≈ 14.7 µM); MIC ([25]; agar-dilution, read-out: MIC): 8 µg/mL (≈ 9.42 µM); MIC [26]: > 50 µg/mL
CCC1OC(=O)CC(O)C(C)C(OC2OC(C)C(O)C(N(C)C)C2O)C(CCOc2ccccc2)CC(C)C(=O)C=CC(C)=CC1COC1OC(C)C(N=[N+]=[N-])C(OC)C1OC (stereo not shown) [Compound 25, 4"-Azido-4"-deoxy-20-DH-20-O-phenyl-desmycosin] | 4 (≈ 4.57 µM) | 4 (≈ 4.57 µM) | > 128 | – | 4 (≈ 4.57 µM) | 64 | > 10 | 4 (≈ 4.57 µM) | – | 8 (≈ 9.14 µM) | – | > 128 | 4 (≈ 4.57 µM) | 4 (≈ 4.57 µM) | > 128 | > 128 | > 128 | 8 (≈ 9.14 µM) | 64 (≈ 73.1 µM) | MIC ([18]; agar-dilution, read-out: MIC): 16 µg/mL (≈ 18.3 µM)
CCC1OC(=O)CC(O)C(C)C(OC2OC(C)C(O)C(N(C)C)C2O)C(CCOc2ccccc2)CC(C)C(=O)C=CC(C)=CC1COC1OC(C)C(N2CCCCC2)C(OC)C1OC (stereo not shown) [Compound 42, 4"-Deoxy-20-DH-20-O-phenyl-4"-(piperidin-1-yl)desmycosin] | 4 (≈ 4.36 µM) | 2 (≈ 2.18 µM) | > 128 | – | 2 (≈ 2.18 µM) | > 100 | > 10 | 4 (≈ 4.36 µM) | – | 2 (≈ 2.18 µM) | 16 (≈ 17.4 µM) | > 128 | 4 (≈ 4.36 µM) | 4 (≈ 4.36 µM) | > 128 | > 128 | > 128 | 2 (≈ 2.18 µM) | 32 (≈ 34.9 µM) | –
CCC1OC(=O)CC(O)C(C)C(OC2OC(C)C(O)C(N(C)C)C2O)C(CCOc2ccccc2)CC(C)C(=O)C=CC(C)=CC1COC1OC(C)C(NCc2ccccc2)C(OC)C1OC (stereo not shown) [Compound 47, 4"-Benzylamino-4"-deoxy-20-DH-20-O-phenyl-desmycosin] | 2 (≈ 2.13 µM) | 2 (≈ 2.13 µM) | > 128 | – | 2 (≈ 2.13 µM) | 70.7 | > 10 | 2 (≈ 2.13 µM) | – | 2 (≈ 2.13 µM) | 8 (≈ 8.52 µM) | > 128 | 2 (≈ 2.13 µM) | 2 (≈ 2.13 µM) | > 128 | 128 (≈ 136 µM) | 128 (≈ 136 µM) | 2 (≈ 2.13 µM) | 32 (≈ 34.1 µM) | –
CCC1OC(=O)CC(O)C(C)C(OC2OC(C)C(O)C(N(C)C)C2O)C(CCOc2ccccc2)CC(C)C(=O)C=CC(C)=CC1COC1OC(C)CC(=O)C1OC (stereo not shown) [Compound 52, 4"-Deoxy-3"-oxo-20-DH-20-O-phenyl-lactenocin] | 0.5 (≈ 0.611 µM) | 0.25 (≈ 0.306 µM) | > 128 | 64 (≈ 78.2 µM) | 0.5 (≈ 0.611 µM) | 79.4 | 10 | 0.5 (≈ 0.611 µM) | 64 (≈ 78.2 µM) | 1 (≈ 1.22 µM) | 2 (≈ 2.44 µM) | > 128 | 0.5 (≈ 0.611 µM) | 0.5 (≈ 0.611 µM) | > 128 | – | – | 2 (≈ 2.44 µM) | 2 (≈ 2.44 µM) | –

Source: patent publication US4920103A, “Modifications of mycinose and 3-O-demethylmycinose in tylosin-type macrolides” (Eli Lilly and Company, priority 1986, dated 1990)
